Measurements: US7576094B2, “Spiro derivatives as lipoxygenase inhibitors” (Eli Lilly and Company, priority 2004, dated 2009)

Experiments:
[1] = system: release of the leukotriene LTB4 from a neutrophil cell line (MPRO cell line); assay: LTB4-Cell Assay; type: cell-based; conditions: Mus musculus, 1 h, read-out: inhibition of LTB4 with an EC50
Text: • This procedure was used for measuring the release of the leukotriene LTB4 from a neutrophil cell line using a competitive ELISA technique. Materials and Equipments Materials for Cell Preparation and Experiment • MPRO cell line (ATCC, Catalog # CRL-11422) • Calcium ionophore (A23187) (Sigma, Catalog # C7522) • Nordihydroguaiaretic acid (NDGA) (BioMol ,Catalog # EI101-0001) • Retinoic Acid (all-trans) (ATRA) (Sigma, Catalog # 95152) • Sterile, tissue-culture treated 96-well plates (Corning, Catalog # 3614) Materials for LTB4 ELISA • Precoated (Mouse Anti-Rabbit IgG) EIA 96 Well Strip Plates (Cayman, Catalog # 400004) • Leukotriene B4 AChE Tracer (Cayman Catalog # 420110) • Leukotriene B4 EIA Antiserum (Cayman Catalog # 420112) • Ellman's Reagent (Cayman Catalog # 400050) • EIA Buffer Concentrate (10×) (Cayman Catalog # 400060) • Wash Buffer Concentrate (400×) (Cayman Catalog # 400062) • Plastic plate covers (Cayman Catalog # 400012) Procedure
A mouse promyelocytic cell line (MPRO) was used in this assay. These cells are committed immature neutrophils that can be differentiated into mature neutrophils by treatment with 10 μM all-trans retinoic acid for 72 hours.
Following 72 hours of differentiation, cells were stimulated with 1 μM of a calcium ionophore (A23187) in the presence or absence of test compound or vehicle for 1 hour at 37° C. After this time, supernatant was removed from the cells and the LTB4 levels were determined following manufacturer's instructions, using a Leukotriene B4 EIA kit from Cayman (Cat # 5201 11). The negative controls were media samples from differentiated but un-stimulated cells. The compounds were screened at 5 concentrations in quadruplicate starting at 10 μM.

[2] = system: LTB4 production in human whole blood; assay: Inhibition of LTB4 Production in Blood; type: cell-based; conditions: 1 h, 20 μM A23187, 60 minutes at 37° C., LTB4 in plasma by ELISA, read-out: protection against LTB4 at an EC50
Description: • Human whole blood (Na citrate) (Stanford Blood Center) • A23187, (Sigma, Cat# C-7522) • Leukotriene B4 EIA reagents (Cayman Chemical, Cat # 520111) • BWA4C (Sigma, Cat # B7559) Procedure Preparation of A23187:
A23187 was prepared as a 10 mM stock solution in DMSO (aliquots can be stored at −20° C.). On the day of the assay the stock solution was diluted as follows: 70 μL 10 mM stock added to 1.6 mL plasma to give a working concentration of 0.42 mM.
From a 30 mM stock solution in DMSO, test articles were diluted to a working concentration of 600 μM in PBS (i.e. 10 μL stock solution+490 μL PBS). This is the highest concentration (gives a final testing concentration of 30 μM). From this 600 μM solution test articles were serially diluted 1:3 in PBS to give a dose-response curve. 10 μL of each concentration of test article was then added to 4 wells of a 96-well plate (i.e. testing in quadruplicate). A positive control compound, BWA4C was used in every assay.
Human whole blood was added to the plates containing compounds (190 μL per well) and mixed well. The blood was incubated with compound at 37° C. for 15 minutes. Following this incubation, 10 μL of 0.42 mM A23187 was added to each well except the negative control wells to give a final calcium ionophore concentration of 20 μM. The plates were then incubated at 37° C. for 60 minutes. After the incubation period, plates were centrifuged for 15 min at 2000 g at 4° C. in sealed microplate buckets. Plasma was then removed for quantitation of LTB4 levels by ELISA.
LTB4 levels in the plasma were determined using a commercially available ELISA kit from Cayman Chemicals. The ELISA was run according to the manufacturer's instructions. The LTB4 levels in the vehicle control sample were then compared to those in which the test article had been added. From this a percent inhibition of LTB4 production by each concentration of test article was calculated and the IC50 was determined.

[3] = biological target: T1, human recombinant 5-Lipoxygenase (Homo sapiens, UniProt P09917); assay: 5-Lipoxygenase Enzyme Assay; type: biochemical; conditions: 70 μM arachidonic acid, 10 minute incubation at room temperature, FOX reagent, absorbance at 620 nm; read-out: inhibition of 5-Lipoxygenase with an IC50
T1 sequence (P09917 1-674): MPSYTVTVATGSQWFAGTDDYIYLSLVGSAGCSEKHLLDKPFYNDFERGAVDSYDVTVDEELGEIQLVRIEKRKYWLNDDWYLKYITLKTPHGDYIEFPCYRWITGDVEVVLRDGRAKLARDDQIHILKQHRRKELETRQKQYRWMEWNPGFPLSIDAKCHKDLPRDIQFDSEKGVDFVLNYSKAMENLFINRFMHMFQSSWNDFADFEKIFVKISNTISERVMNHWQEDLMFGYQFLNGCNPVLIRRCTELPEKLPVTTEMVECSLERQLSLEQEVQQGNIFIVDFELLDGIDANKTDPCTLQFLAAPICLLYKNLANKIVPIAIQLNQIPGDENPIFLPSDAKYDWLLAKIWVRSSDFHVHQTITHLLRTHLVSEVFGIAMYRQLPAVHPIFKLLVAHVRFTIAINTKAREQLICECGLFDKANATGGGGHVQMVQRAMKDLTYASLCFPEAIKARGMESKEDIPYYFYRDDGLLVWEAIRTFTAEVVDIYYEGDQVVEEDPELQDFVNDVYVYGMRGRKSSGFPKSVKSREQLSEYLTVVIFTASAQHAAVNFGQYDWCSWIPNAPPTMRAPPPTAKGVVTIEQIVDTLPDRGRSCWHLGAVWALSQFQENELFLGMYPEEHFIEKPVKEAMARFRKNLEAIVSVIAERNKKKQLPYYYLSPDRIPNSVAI
Method in brief: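 Recombinant human 5-LOX in 50 mM Tris-HCl pH 7.4 was preincubated with compound, then 70 μM arachidonic acid was added for 10 min at room temperature. Hydroperoxide was read by FOX reagent (ferric xylenol orange, 1 h complex formation) as absorbance at 620 nm. Five concentrations in triplicate were tested, starting at 10 μM.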

Row | SMILES | EC50 [1] [µM] | EC50 [2] [µM] | IC50 [3] [µM]
1 | CCc1cc2c(c(CC)c1O)/C(=N/O)CC1(CCC1)O2 [5,7-diethyl-6-hydroxyspiro[chromene-2,1′-cyclobutan]-4(3H)-one oxime] | < 5 | < 10 | < 0.3
2 | CCONC1CC2(CCC2)Oc2c(C)c(C)c(O)c(C)c21 (stereo not shown) [4-(ethoxyamino)-5,7,8-trimethyl-3,4-dihydrospiro[chromene-2,1′-cyclobutan]-6-ol] | < 5 | < 10 | < 0.3
3 | Cc1c(O)c(C)c(-c2cnco2)c2c1CCC1(CCC1)O2 [5,7-dimethyl-8-(1,3-oxazol-5-yl)-3,4-dihydrospiro[chromene-2,1′-cyclobutan]-6-ol] | < 5 | < 10 | < 0.3
4 | Cc1c(C)c2c(c(C)c1O)C(NO)CC1(CCC1)O2 (stereo not shown) [4-(hydroxyamino)-5,7,8-trimethyl-3,4-dihydrospiro[chromene-2,1′-cyclobutan]-6-ol] | < 5 | < 10 | < 0.3
5 | COC1CC2(CCC2)Oc2cc(C)c(O)c(C)c21 (stereo not shown) [4-methoxy-5,7-dimethyl-3,4-dihydrospiro[chromene-2,1′-cyclobutan]-6-ol] | < 5 | < 10 | < 0.3
6 | CONC1CC2(CCC2)Oc2cc(C)c(O)c(C)c21 (stereo in doubt) [(4S)-4-(methoxyamino)-5,7-dimethyl-3,4-dihydrospiro[chromene-2,1′-cyclobutan]-6-ol] | < 5 | < 10 | < 0.3
7 | CCOC1c2c(C)c(O)c(C)c(C)c2OCC12CCC2 (stereo not shown) [4-ethoxy-5,7,8-trimethylspiro[chroman-3,1′-cyclobutan]-6-ol] | < 5 | < 10 | < 0.3
8 | COC1c2c(C)c(O)c(C)c(C)c2OCC12CCC2 (stereo not shown) [4-methoxy-5,7,8-trimethylspiro[chroman-3,1′-cyclobutan]-6-ol] | < 5 | < 10 | < 0.3
9 | CONCc1c(C)c(O)c(C)c2c1OC1(CCC1)CC2 [8-[(methoxyamino)methyl]-5,7-dimethyl-3,4-dihydrospiro[chromene-2,1′-cyclobutan]-6-ol] | < 5 | < 10 | < 0.3
10 | CONC1CC2(CCC2)Oc2cc(C)c(O)c(C)c21 (stereo not shown) [4-(methoxyamino)-5,7-dimethyl-3,4-dihydrospiro[chromene-2,1′-cyclobutan]-6-ol] | < 5 | < 10 | < 0.3
11 | Cc1c(C)c2c(c(C)c1O)C=C(C(C)O)C1(CCC1)O2 (stereo not shown) [3-(1-hydroxyethyl)-5,7,8-trimethylspiro[chromene-2,1′-cyclobutan]-6-ol] | < 5 | < 10 | –
12 | CCONCc1c(C)c(O)c(C)c2c1OC1(CCC1)CC2 [8-[(ethoxyamino)methyl]-5,7-dimethyl-3,4-dihydrospiro[chromene-2,1′-cyclobutan]-6-ol] | < 5 | < 10 | < 0.3
13 | Cc1cc2c(c(C)c1O)/C(=N/O)CC1(CCC1)O2 [6-hydroxy-5,7-dimethylspiro[chromene-2,1′-cyclobutan]-4(3H)-one oxime] | < 5 | < 10 | < 0.3
14 | Cc1c(C)c2c(c(C)c1O)C(=NO)CC1(CCC1)O2 [6-hydroxy-5,7,8-trimethylspiro[chromene-2,1′-cyclobutan]-4(3H)-one oxime] | < 5 | < 10 | –
15 | CCc1cc2c(c(CC)c1O)C(NOC)CC1(CCC1)O2 (stereo not shown) [4-(methoxyamino)-5,7-diethyl-3,4-dihydrospiro[chromene-2,1′-cyclobutan]-6-ol] | < 5 | < 10 | < 0.3
16 | COC1c2c(C)c(O)c(C)c(C)c2OC2(CCC2)C1C (stereo not shown) [4-methoxy-3,5,7,8-tetramethyl-3,4-dihydrospiro[chromene-2,1′-cyclobutan]-6-ol] | < 5 | < 10 | –
17 | Cc1c(C)c2c(c(C)c1O)CC(O)C1(CCC1)O2 (stereo not shown) [5,7,8-trimethyl-3,4-dihydrospiro[chromene-2,1′-cyclobutane]-3,6-diol] | < 5 | < 10 | –
18 | CCO/N=C1\CC2(CCC2)Sc2c(C)c(C)c(O)c(C)c21 [6′-hydroxy-5′,7′,8′-trimethylspiro[cyclobutane-1,2′-thiochromen]-4′(3′H)-one O-ethyloxime] | < 5 | < 10 | < 0.3
19 | CO/N=C1\CC2(CCC2)Sc2cc(C)c(O)c(C)c21 [6′-hydroxy-5′,7′-dimethylspiro[cyclobutane-1,2′-thiochromen]-4′(3′H)-one O-methyloxime] | < 5 | < 10 | < 0.3
20 | CCc1cc2c(c(CC)c1O)/C(=N/OC)CC1(CCC1)O2 [5,7-diethyl-6-hydroxyspiro[chromene-2,1′-cyclobutan]-4(3H)-one O-methyloxime] | < 5 | < 10 | < 0.3
21 | CONC1CC2(CCC2)Oc2cc(C)c(O)c(C)c21 (stereo in doubt) [(4R)-4-(methoxyamino)-5,7-dimethyl-3,4-dihydrospiro[chromene-2,1′-cyclobutan]-6-ol] | < 5 | < 10 | < 0.3
22 | CONCC1=Cc2c(cc(C)c(O)c2C)OC12CCC2 [3-[(methoxyamino)methyl]-5,7-dimethylspiro[chromene-2,1′-cyclobutan]-6-ol] | < 5 | < 10 | –
23 | Cc1c(C)c2c(c(C)c1O)CC(CO)C1(CCC1)O2 (stereo not shown) [3-(hydroxymethyl)-5,7,8-trimethyl-3,4-dihydrospiro[chromene-2,1′-cyclobutan]-6-ol] | < 5 | < 10 | –
24 | CC1=Cc2c(C)c(O)c(C)c(C)c2OC12CCC2 [3,5,7,8-tetramethylspiro[chromene-2,1′-cyclobutan]-6-ol] | < 5 | < 10 | –
25 | CCc1cc2c(c(CC)c1O)CC(COC(N)=O)C1(CCC1)O2 (stereo not shown) [(5,7-diethyl-6-hydroxyspiro[chroman-2,1′-cyclobutane]-3-yl)methyl carbamate] | < 5 | < 10 | –
